Experimental data reported in US20140370594A1, “BIOLOGICAL CONVERSION OF BIOMASS-DERIVED SUGARS TO VALUE ADDED CHEMICALS” (WISCONSIN ALUMNI RESEARCH FOUNDATION, priority 2013, published 2014).

Experiments:
E. coli = experiment: Growth in minimal media supplemented with GVL, aerobic (FIGS. 9-13); format: cell-based, Escherichia coli; settings: GVL concentrations of about 2% (wt/vol) and less, minimal medium
Description: Overnight cultures of E. coli were started from single colonies picked into LB (5 mL) and incubated at 37° C. […] with 250 rpm shaking. The overnight cultures were used to inoculate test media (2 mL) to an OD600 (optical density at 600 nm) of 0.01. These cultures were then incubated as described below. The final OD600 of each culture was measured after 24 hours of incubation.
(§1) Test media for E. coli and P. putida were made using MOPS minimal salts and either varying the weight percent of NaCl and GVL or varying dilutions of the aqueous product stream in water. L. casei test media were made using Chemically Defined Media for L. casei and yeast aerobic test media were made with Yeast Nitrogen Base (6.7 g/L; Difco, a wholly owned subsidiary of Becton Dickinson and Company, Franklin Lakes, N.J.). Yeast anaerobic media were made with Yeast Nitrogen Base and supplemented with Tween 80 (0.4 wt %) and amino acids (50 mg/L).
(§2) The next step was to investigate the sensitivity of various microorganisms to salt concentration and GVL concentration. This was accomplished by measuring the growth of E. coli and yeasts in minimal media supplemented with known concentrations of GVL or NaCl under aerobic conditions. The results are depicted in FIGS. 9 through 13. FIG. 9 depicts the growth characteristics of E. coli TY05 in response to increasing concentrations of GVL. […]

yeast = experiment: as above; format: cell-based; settings: GVL concentrations of about 2% (wt/vol) and less, minimal medium
Description: Yeast cultures were picked from single colonies and grown aerobically overnight in rich YPD broth (5 mL) (Sigma-Aldrich, St. Louis, Mo.) at 30° C. and 250 rpm. The yeast tested were Saccharomyces cerevisiae PE2 (Lallemand, Inc., Montreal, Quebec, Canada; see also Silva-Filho E A, Melo H F, Antunes D F, Santos S K B, Resende A M, Simões D A, Morais M A Jr, “Isolation by genetic and physiological characteristics of a fuel-ethanol fermentative Saccharomyces cerevisiae strain with potential for genetic manipulation,” J Ind Microbiol Biotechnol 2005, 32:481-486), Spathaspora passalidarum NN245 (ARS Culture Collection, NRRL Y-50740), Scheffersomyces stipitis 7124 (ATCC® 58376), and Scheffersomyces stipitis 6054 (ATCC® 58785).
For the aerobic test media growth experiments, an overnight culture was used to inoculate test media (2 mL) to an OD600 of 0.01. The test cultures were then incubated for 40 hours under the same conditions. A final OD600 was measured after the 40-hour incubation period.
Test media for E. coli and P. putida were made using MOPS minimal salts and either varying the weight percent of NaCl and GVL or varying dilutions of the aqueous product stream in water. […]

E. coli and yeasts = experiment: Sensitivity of growth to GVL versus NaCl concentration (FIGS. 9-13); format: cell-based; settings: minimal media supplemented with GVL or NaCl, aerobic
Text: as §1
as §2, with “GVL. FIG. 10 depicts the growth characteristics of S. cerevisiae in response to increasing concentrations of GVL. FIG. 11 depicts the growth characteristics of S. cerevisiae PE2 in response to increasing concentrations of NaCl. FIG. 12 depicts the growth characteristics of S. passalidarum NN245 in response to increasing NaCl concentration.” for “GVL.”

## CC1CCC(=O)O1 (stereo not drawn) [GVL, gamma-valerolactone]
E. coli
  growth in the presence of GVL: very significant growth
yeast
  growth in the presence of GVL: very significant growth
E. coli and yeasts
  impact of concentration on cell growth as compared to NaCl: stronger impact on cell growth
